Assay results reported in ChEMBL document CHEMBL1201862, “PubChem BioAssay data set” (2004).
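Cultured in 96-well plates, cells were exposed to test compound for 48 hours across five concentrations. GI50: concentration for 50% inhibition of growth.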 Calls of active or inactive are those of the source. No stated cut-off is given here; in the data, active = GI50 up to about 1.1 µM and inactive = higher.

Key:
Assay in all cases: NCI-60 cell line screen, 48 h
[1] = tested on: K562
[2] = tested on: U-251
[3] = tested on: KM12
[4] = tested on: NCI-H460
[5] = tested on: HL-60
[6] = tested on: SF-295
[7] = tested on: HCT-116
[8] = tested on: OVCAR-3
[9] = tested on: HCT-15
[10] = tested on: SF-268
[11] = tested on: ACHN
[12] = tested on: EKVX
[13] = tested on: PC-3
[14] = tested on: SNB-75
[15] = tested on: CAKI-1
[16] = tested on: UACC-257
[17] = tested on: HOP-92
[18] = tested on: MOLT-4
[19] = tested on: M14
[20] = tested on: IGROV-1
[21] = tested on: SF-539
[22] = tested on: 786-0
[23] = tested on: NCI/ADR-RES
[24] = tested on: SK-MEL-5
[25] = tested on: RXF 393
[26] = tested on: BT-549
[27] = tested on: MDA-MB-435
[28] = tested on: UACC-62
[29] = tested on: OVCAR-8
[30] = tested on: MDA-N
[31] = tested on: HT-29
[32] = tested on: SK-MEL-2
[33] = tested on: CCRF-CEM
[34] = tested on: SR
[35] = tested on: UO-31
[36] = tested on: T47D
[37] = tested on: OVCAR-5
[38] = tested on: COLO 205
[39] = tested on: NCI-H522
[40] = tested on: SW-620
[41] = tested on: TK-10
[42] = tested on: SNB-19
[43] = tested on: OVCAR-4
[44] = tested on: SN12C
[45] = tested on: Malme-3M
[46] = tested on: NCI-H23
[47] = tested on: HCC 2998
[48] = tested on: SK-MEL-28
[49] = tested on: MCF7
[50] = tested on: DU-145
[51] = tested on: RPMI-8226
[52] = tested on: NCI-H226
[53] = tested on: LOX IMVI
[54] = tested on: HOP-62
[55] = tested on: A549
[56] = tested on: SK-OV-3
[57] = tested on: A498
[58] = tested on: MDA-MB-231

For O=C(c1ccco1)n1c2ccc(Br)cc2c2nc3ccccc3nc21, the GI50 [1] was 38.4 µM (inactive), the GI50 [2] was 40.8 µM (inactive) and the GI50 [3] was 26.8 µM (inactive). The GI50 [4] was 28.6 µM (inactive), the GI50 [5] was > 100 µM (inactive) and the GI50 [6] was 72.8 µM (inactive). For the same compound, the GI50 [7] was 46.7 µM (inactive), the GI50 [8] was 47.5 µM (inactive) and the GI50 [9] was 48.2 µM. For the same compound, the GI50 [10] was 27 µM (inactive), the GI50 [11] was 27.4 µM (inactive) and the GI50 [12] was 34.5 µM (inactive). The GI50 [13] was 50.4 µM (inactive), the GI50 [14] was 16.6 µM (inactive) and the GI50 [15] was 84.9 µM (inactive). For the same compound, the GI50 [16] was > 100 µM (inactive), the GI50 [17] was 30.5 µM (inactive) and the GI50 [18] was 22 µM (inactive). The GI50 [19] was > 100 µM (inactive), the GI50 [20] was 19.4 µM (inactive) and the GI50 [21] was > 100 µM (inactive). The GI50 [22] was 18.7 µM (inactive), the GI50 [23] was 35.6 µM (inactive) and the GI50 [24] was > 100 µM (inactive). For the same compound, the GI50 [25] was 52 µM (inactive), the GI50 [26] was 45.4 µM (inactive) and the GI50 [27] was > 100 µM (inactive). The GI50 [28] was 31.6 µM (inactive), the GI50 [29] was 35.2 µM (inactive) and the GI50 [30] was > 100 µM (inactive). The GI50 [31] was 81.5 µM (inactive), the GI50 [32] was 34.1 µM (inactive) and the GI50 [33] was 40.8 µM (inactive). The GI50 [34] was > 100 µM (inactive), the GI50 [35] was 27 µM (inactive) and the GI50 [36] was > 100 µM (inactive). The GI50 [37] was > 100 µM (inactive), the GI50 [38] was > 100 µM (inactive) and the GI50 [39] was 12.1 µM (inactive). For the same compound, the GI50 [40] was 42.6 µM (inactive), the GI50 [41] was 45.8 µM (inactive) and the GI50 [42] was 23.2 µM (inactive). The GI50 [43] was 48.1 µM (inactive), the GI50 [44] was > 100 µM (inactive) and the GI50 [45] was 35 µM (inactive). The GI50 [46] was 23.7 µM (inactive), the GI50 [47] was 61.1 µM (inactive) and the GI50 [48] was > 100 µM (inactive). The GI50 [49] was 5.09 µM (inactive), the GI50 [50] was 40.6 µM (inactive) and the GI50 [51] was 11.2 µM (inactive). The GI50 [52] was 68.4 µM (inactive), the GI50 [53] was 46.3 µM (inactive) and the GI50 [54] was 16.1 µM (inactive).

For CCOCCOCCOCc1nc(C#N)c(N)o1, the GI50 [1] was > 100 µM (inactive), the GI50 [2] was > 100 µM (inactive) and the GI50 [3] was > 100 µM (inactive). For the same compound, the GI50 [4] was > 100 µM (inactive), the GI50 [5] was > 100 µM (inactive) and the GI50 [6] was > 100 µM (inactive). The GI50 [7] was > 100 µM (inactive), the GI50 [8] was > 100 µM (inactive) and the GI50 [9] was > 100 µM. The GI50 [10] was > 100 µM (inactive), the GI50 [11] was > 100 µM (inactive) and the GI50 [12] was > 100 µM (inactive). The GI50 [13] was > 100 µM (inactive), the GI50 [14] was > 100 µM (inactive) and the GI50 [15] was > 100 µM (inactive). The GI50 [16] was > 100 µM (inactive), the GI50 [18] was > 100 µM (inactive) and the GI50 [19] was > 100 µM (inactive). For the same compound, the GI50 [20] was > 100 µM (inactive), the GI50 [21] was > 100 µM (inactive) and the GI50 [22] was > 100 µM (inactive). The GI50 [23] was > 100 µM (inactive), the GI50 [24] was > 100 µM (inactive) and the GI50 [55] was > 100 µM (inactive). The GI50 [25] was > 100 µM (inactive), the GI50 [26] was > 100 µM (inactive) and the GI50 [27] was > 100 µM (inactive). The GI50 [28] was > 100 µM (inactive), the GI50 [29] was > 100 µM (inactive) and the GI50 [31] was > 100 µM (inactive). The GI50 [32] was > 100 µM (inactive), the GI50 [56] was > 100 µM (inactive) and the GI50 [33] was > 100 µM (inactive). For the same compound, the GI50 [34] was > 100 µM (inactive), the GI50 [35] was > 100 µM (inactive) and the GI50 [36] was > 100 µM (inactive). The GI50 [37] was > 100 µM (inactive), the GI50 [38] was > 100 µM (inactive) and the GI50 [39] was 93.1 µM (inactive). For the same compound, the GI50 [40] was > 100 µM (inactive), the GI50 [57] was > 100 µM (inactive) and the GI50 [41] was > 100 µM (inactive). The GI50 [43] was > 100 µM (inactive), the GI50 [44] was > 100 µM (inactive) and the GI50 [46] was > 100 µM (inactive). The GI50 [58] was > 100 µM (inactive), the GI50 [47] was > 100 µM (inactive) and the GI50 [48] was > 100 µM (inactive). The GI50 [49] was > 100 µM (inactive), the GI50 [50] was > 100 µM (inactive) and the GI50 [51] was > 100 µM (inactive). For the same compound, the GI50 [52] was > 100 µM (inactive), the GI50 [53] was > 100 µM (inactive) and the GI50 [54] was > 100 µM (inactive).

CCC(C(=O)C(=O)OC)P1(=O)OC(C)(C)CN1C(C)(C)C (centres undefined) was tested, and the GI50 [1] was > 100 µM (inactive), the GI50 [2] was > 100 µM (inactive) and the GI50 [3] was > 100 µM (inactive). The GI50 [4] was > 100 µM (inactive), the GI50 [6] was > 100 µM (inactive) and the GI50 [7] was > 100 µM (inactive). For the same compound, the GI50 [8] was > 100 µM (inactive), the GI50 [9] was > 100 µM and the GI50 [10] was > 100 µM (inactive). The GI50 [11] was > 100 µM (inactive), the GI50 [12] was > 100 µM (inactive) and the GI50 [13] was > 100 µM (inactive). For the same compound, the GI50 [14] was > 100 µM (inactive), the GI50 [15] was > 100 µM (inactive) and the GI50 [16] was > 100 µM (inactive). For the same compound, the GI50 [18] was > 100 µM (inactive), the GI50 [19] was > 100 µM (inactive) and the GI50 [20] was > 100 µM (inactive). The GI50 [21] was > 100 µM (inactive), the GI50 [22] was > 100 µM (inactive) and the GI50 [23] was > 100 µM (inactive). The GI50 [24] was > 100 µM (inactive), the GI50 [55] was > 100 µM (inactive) and the GI50 [26] was > 100 µM (inactive). The GI50 [27] was > 100 µM (inactive), the GI50 [28] was 22.6 µM (inactive) and the GI50 [29] was > 100 µM (inactive). The GI50 [31] was > 100 µM (inactive), the GI50 [32] was > 100 µM (inactive) and the GI50 [56] was > 100 µM (inactive). The GI50 [34] was > 100 µM (inactive), the GI50 [35] was > 100 µM (inactive) and the GI50 [36] was > 100 µM (inactive). For the same compound, the GI50 [37] was > 100 µM (inactive), the GI50 [38] was > 100 µM (inactive) and the GI50 [40] was > 100 µM (inactive). For the same compound, the GI50 [57] was 20.5 µM (inactive), the GI50 [41] was > 100 µM (inactive) and the GI50 [42] was > 100 µM (inactive). The GI50 [43] was > 100 µM (inactive), the GI50 [45] was > 100 µM (inactive) and the GI50 [46] was > 100 µM (inactive). For the same compound, the GI50 [58] was > 100 µM (inactive), the GI50 [47] was > 100 µM (inactive) and the GI50 [48] was 11.9 µM (inactive). For the same compound, the GI50 [49] was 26.9 µM (inactive), the GI50 [50] was > 100 µM (inactive) and the GI50 [51] was > 100 µM (inactive). The GI50 [52] was > 100 µM (inactive), the GI50 [53] was > 100 µM (inactive) and the GI50 [54] was > 100 µM (inactive).
